Measurements reported in PMC11173533, “Baicalin and Baicalein Enhance Cytotoxicity, Proapoptotic Activity, and Genotoxicity of Doxorubicin and Docetaxel in MCF-7 Breast Cancer Cells” (Molecules, 2024).
Values joined by “and” are separate entries in the source; they are usually repeats but may differ in a detail not shown here. Equal values may be shown once.

How the values were obtained:
MCF-7 cells [1] = assay: MTT cell viability assay on MCF-7 cells; assay type: cell-based, human; conditions: for IC50: Homo sapiens, MCF7, read-out: Inhibitory concentration IC50 (reduces cell viability by 50%); for IC50 / Inhibitory concentration IC10 (reduces cell viability by 10%): MCF-7 cell line, 24 h incubation, MTT; for Concentrations giving statistically significant reduction in the number of living cells: MCF-7, 24 h incubation with flavonoid, p < 0.05 vs control; for Viable cells: MCF-7, doxorubicin 3 µmol/L after 22 h preincubation with flavonoid IC50
Description: (§1) Unless otherwise indicated, in experiments, cells were seeded at an appropriate density for the specific assay into 96-well plates or Petri dishes. They were then incubated in standard culture conditions, which included a temperature of 37 °C, 100% relative humidity, and a 5% CO2 incubator. […] After treatment, the cells were washed with PBS and, depending on the experiment, immediately used for measurement or cultured in a fresh medium for 24 or 48 h. Control cells were treated with a corresponding volume of PBS. Additional controls for solvents were also performed.
(§2) The principle of the method is a measurement of the absorbance of formazan, a product of the reduction of the water-soluble tetrazolium salt (MTT) by NADPH-dependent cellular oxidoreductases (mainly succinate dehydrogenase) in living cells. Formazan is insoluble in water and precipitates as purple crystals. The amount of formazan is proportional to the number of living and metabolically active cells.
(§3) After treatment, the cells were washed with PBS and cultured in a fresh medium for 48 h. Subsequently, the medium was aspirated, and an aliquot of 50 µL of 0.05 mg/mL MTT solution was added to each microplate well for 3 h. The formazan crystals were dissolved in dimethyl sulfoxide (DMSO), and the absorbance was measured at a wavelength of λ = 580 nm. The percentage of viable cells was calculated by comparing the absorbance value of the test samples to the absorbance value of the control, taking the absorbance of the control as 100%.

HUVEC-ST cells [2] = assay: MTT cell viability assay on HUVEC-ST cells; assay type: cell-based, human; conditions: for Inhibitory concentration IC10 (reduces cell viability by 10%) / IC50: HUVEC-ST cell line, 24 h incubation, MTT; for Concentrations that significantly decreased cell viability: HUVEC-ST, 24 h incubation with flavonoid, p < 0.05 vs control; for IC50: Homo sapiens, read-out: Inhibitory concentration IC50 (reduces cell viability by 50%)
Description: as §1, §2, §3

MCF-7 cells [3] = assay: Flavonoid-drug combination index (MTT, CompuSyn) in MCF-7 cells; assay type: cell-based, human
Description: (§4) The experiment with a non-constant combination of BLIN and BLEIN with DOX or DTX was carried out to determine the synergistic, additive, or antagonistic effect between investigated flavonoids and anticancer drugs. […] Subsequently, cell viability was determined by MTT assay. […] The results were presented as a combination index (CI).

HUVEC-ST cells [4] = assay: Flavonoid-drug combination index (MTT, CompuSyn) in HUVEC-ST cells; assay type: cell-based, human
Description: as §4

MCF-7 cells [5] = assay: Cytometric measurement of doxorubicin accumulation in MCF-7 cells; assay type: cell-based, human; conditions: 22 h preincubation with flavonoid IC50, after 20 min of drug
Description: (§5) The aromatic rings in the hydrophobic part of doxorubicin give the drug molecule fluorescent properties (λex = 490 nm, λem = 590 nm). Thus, the flow cytometric measurement of drug fluorescence inside the cells allows for the monitoring of its transport rate through the cell membrane. The increase in the intensity of drug fluorescence inside the cells is highly correlated with its accumulation.
(§6) The DOX was added to the cell suspension to achieve a final concentration equal to the IC50 value. During one hour of incubation (temp 37 °C) with the drug, samples for cytometric measurement were taken from the cell suspension after the first 5 min and then after every 10 min. Samples were analyzed using the flow cytometer LSR® II from Becton Dickinson (San Jose, CA, USA) using an argon laser with a wavelength of λ = 488 nm. Doxorubicin fluorescence intensity was calculated per single cell.

HUVEC-ST cells [6] = assay: Cytometric measurement of doxorubicin accumulation in HUVEC-ST cells; assay type: cell-based, human; conditions: 22 h preincubation with flavonoid IC50, 1 h study period
Description: as §5, §6

MCF-7 cells [7] = assay: Annexin V FITC/propidium iodide double staining in MCF-7 cells; assay type: cell-based, human; conditions: for Viable cells: docetaxel IC50 + high concentration of flavonoid
Description: as §1
(§7) This assay is based on the principle that, in viable cells, phosphatidylserine (PS) is located in the inner membrane (side facing the cytoplasm). However, upon induction of apoptosis, PS is translocated to the outer membrane (PS also appears on the necrotic cell surface). The exposed phosphatidylserine can be detected by protein Annexin V stained with FITC dye. The addition of propidium iodide (PI) enabled necrotic cells to be distinguished. Thus, this method is convenient for counting and differentiating live cells from those undergoing apoptosis or necrosis.
(§8) The analysis was performed according to the manufacturer’s protocol on cells immediately after the treatment and 24 or 48 h postincubation. Samples were analyzed using the flow cytometer LSR® II from Becton Dickinson (San Jose, CA, USA) using an argon laser with a wavelength of λ = 488 nm.

HUVEC-ST cells [8] = assay: Annexin V FITC/propidium iodide double staining in HUVEC-ST cells; assay type: cell-based, human
Description: as §1, §7, §8

MCF-7 cells [9] = assay: Mitochondrial membrane potential (JC-1) in MCF-7 cells; assay type: cell-based, human
Description: as §1
(§9) The mitochondrial membrane potential was measured with the membrane-permeant JC-1 fluorescent probe. […] Thus, the measurement of the ratio of JC-1 dimer to monomer fluorescence can be used for estimating changes in mitochondrial membrane potential (ΔΨm).
(§10) The cells were then incubated in complete darkness for 30 min at 37 °C. After incubation, the cells were washed to remove the dye and suspended in fresh HBSS solution. Finally, the fluorescence intensity was measured using a Cary Eclipse spectrofluorometer (Varian, Inc.) at λex/em = 475 nm/530 nm for monomers and at λex/em = 535 nm/590 nm for dimers. Subsequently, the ratio of the fluorescence intensities at 530 nm/590 nm was calculated. The mitochondrial potential in both cell lines was measured immediately after incubation with investigated compounds. The results are expressed as a percentage of the control, considered 100%.

HUVEC-ST cells [10] = assay: Mitochondrial membrane potential (JC-1) in HUVEC-ST cells; assay type: cell-based, human
Description: as §1, §9, §10

HUVEC = tested on: HUVEC; set-up: method as in Liu et al. [53]; conditions: 50 µmol/L, 48 h; ref Liu et al. [53]; cited from earlier work
[11] = flavonoid IC10 22 h preincubation + DOX IC50 2 h
[12] = flavonoid IC10 22 h preincubation + DTX IC50 2 h
[13] = flavonoid IC50 22 h preincubation + DOX IC50 2 h
[14] = flavonoid IC50 22 h preincubation + DTX IC50 2 h
[15] = doxorubicin IC50 + flavonoid IC50 preincubation, 48 h post-incubation
[16] = flavonoid IC50 alone 24 h, 24 h after incubation
[17] = flavonoid IC50 alone 24 h, 48 h after incubation
[18] = flavonoid alone (high concentration), 48 h after incubation
[19] = doxorubicin IC50 after 22 h preincubation with flavonoid IC50
[20] = flavonoid IC50 alone 24 h, control = 100%

| Structure (SMILES) | IC50 (MCF-7 cells [1]) [µM] | Concentrations giving statistically significant reduction in the number of living cells (MCF-7 cells [1]) [µmol/L] | Viable cells (MCF-7 cells [1]) [%] | Inhibitory concentration IC10 (reduces cell viability by 10%) (MCF-7 cells [1]) [µmol/L] | Inhibitory concentration IC10 (reduces cell viability by 10%) (HUVEC-ST cells [2]) [µmol/L] | Concentrations that significantly decreased cell viability (HUVEC-ST cells [2]) [µmol/L] | IC50 (HUVEC-ST cells [2]) [µM] | Combination index (CI) (MCF-7 cells [3]; [11]) | Combination index (CI) (MCF-7 cells [3]; [12]) | Combination index (CI) (MCF-7 cells [3]; [13]) | Combination index (CI) (MCF-7 cells [3]; [14]) | Combination index (CI) (HUVEC-ST cells [4]; [11]) | Combination index (CI) (HUVEC-ST cells [4]; [12]) | Combination index (CI) (HUVEC-ST cells [4]; [13]) | Combination index (CI) (HUVEC-ST cells [4]; [14]) | Amount of doxorubicin in cells relative to cells not treated with flavonoids (MCF-7 cells [5]) | Enhancement of doxorubicin accumulation/influx (HUVEC-ST cells [6]) | AV+/PI− cells (undergoing apoptosis) (MCF-7 cells [7]; [15]) [%] | AV+/PI− cells (undergoing apoptosis) (MCF-7 cells [7]; [16]) [%] | AV+/PI+ cells (MCF-7 cells [7]; [17]) [%] | other results |
| --- | --- | --- | --- | --- | --- | --- | --- | --- | --- | --- | --- | --- | --- | --- | --- | --- | --- | --- | --- | --- | --- |
| O=C(O)[C@H]1O[C@@H](Oc2cc3oc(-c4ccccc4)cc(=O)c3c(O)c2O)[C@H](O)[C@@H](O)[C@@H]1O [baicalin, baicalein 7-O-β-D-glucuronide] | 250 ± 10.5 | ≥ 56 | 21 | 36 ± 3.4 | 101 ± 10.7 | ≥ 112 | 167 ± 6.7 | 1.158 | 0.9652 | 0.6435 | 0.5421 | 2.915 | 0.9948 | 1.794 | 3.1 and 3.137 | over two times higher | observed only during the first 30 min of the study | 34 | ~20 | 25 | Viable cells (MCF-7 cells [7]; 24 h after incubation): 22%; Viable cells (MCF-7 cells [7]; 48 h after incubation): 24%; Viable cells (HUVEC-ST cells [8]; doxorubicin IC50 + lower concentration (IC10) of flavonoid, longest postincubation time (48 h)): 55%; AV+/PI+ cells (HUVEC-ST cells [8]; [18]): 30%; AV+/PI− cells (HUVEC-ST cells [8]; [18]): 19%; Mitochondrial membrane potential ΔΨm, % of control (MCF-7 cells [9]; [19]): 31%; Mitochondrial membrane potential ΔΨm, % of control (MCF-7 cells [9]; [20]): 30%; Mitochondrial membrane potential ΔΨm, % of control (HUVEC-ST cells [10]; [20]): 72%; Viable HUVECs, % of the control (HUVEC): 61% ± 8% |
| O=c1cc(-c2ccccc2)oc2cc(O)c(O)c(O)c12 [baicalein, 5,6,7-Trihydroxyflavone] | 95 ± 4.8 | ≥ 10 | 10 | 9 ± 0.7 | 75 ± 1.8 | ≥ 56 | 115 ± 2.6 | 1.073 | 1.08 | 0.3412 | 0.6276 | 0.8721 | 0.9611 | 0.6801 | 0.4428 | over two times higher | increased doxorubicin accumulation was maintained for the whole study period | 21 | ~20 | 28 | AV+/PI+ cells (HUVEC-ST cells [8]; docetaxel IC50 + flavonoid IC50, 24 h after incubation): 44%; Change in percentage of AV+/PI− or AV+/PI+ cells vs doxorubicin alone (HUVEC-ST cells [8]; doxorubicin IC50 + flavonoid IC50, 24 h after incubation): increased almost two-fold; AV+/PI− cells (HUVEC-ST cells [8]; [18]): 10%; Mitochondrial membrane potential ΔΨm, % of control (MCF-7 cells [9]; docetaxel IC50 after 22 h preincubation with flavonoid IC50): 18%; Mitochondrial membrane potential ΔΨm, % of control (MCF-7 cells [9]; [19]): 20%; Mitochondrial membrane potential ΔΨm, % of control (MCF-7 cells [9]; [20]): 30%; Mitochondrial membrane potential ΔΨm, % of control (HUVEC-ST cells [10]; [19]): 33%; Mitochondrial membrane potential ΔΨm (HUVEC-ST cells [10]; doxorubicin IC50 after preincubation with flavonoid in low concentration (IC10)): increasing ΔΨm to the level of control; Mitochondrial membrane potential ΔΨm, % of control (HUVEC-ST cells [10]; [20]): 59%; Viable HUVECs, % of the control (HUVEC): 37% ± 3% |
